The results in this text go back to publication PMC4537067 (ACS infectious diseases, 2015).

Where a name gives a salt, the structure may show the parent alone. Read-outs that look alike come from different tables or passages of the source.

Data set [1] relates to EBOV minigenome activity. Briefly: cells. The settings on record: Zaire ebolavirus, HEK-293T, 24 h.
The next data set in a line: in vitro. The settings on record: human.
Another data set relates to EBOV-GFP. The format is cell-based, Ebola virus.
Data set [2] relates to EBOV minigenome activity. The format is cell-based, Ebola virus.
In data set [3] the test system is EBOV minigenome activity. The data set can be described thus: microbe, parasite or virus in culture. It is filed as cell-based, Ebola virus.
Data set [4] relates to EBOV minigenome activity.

Regarding `COc1c(C)c2c(c(O)c1C/C=C(\C)CCC(=O)O)C(=O)OC2` [mycophenolic acid], the “cell death (cytotoxicity)” value in the data set with Vero E6 cells is on record as “little cell death”. The IC50 (usually the concentration at which inhibition is half-maximal) in the data set on EBOV minigenome activity [1] amounted to 0.316 µM. In the data set “in vitro”, this compound displayed a CC50 greater than 50 µM. Moreover, in the data set on EBOV-GFP, the “reduction of virus replication (EBOV-GFP)” value came out at 96%. In addition, the “effect of guanosine addition on inhibition of minigenome activity” value in the data set with EBOV minigenome activity [2] was “rescued minigenome activity at all concentrations”. In addition, in the data set with EBOV minigenome activity [3], the “% inhibition in screen” value is 90.5%.
Turning to `O=c1cnn([C@@H]2O[C@H](CO)[C@@H](O)[C@H]2O)c(=O)[nH]1` [6-Azauridine], the inhibition – broadly, the share of the control response that was lost under treatment – at 7 µM in the data set with EBOV minigenome activity [3] (Zaire ebolavirus, 24 h, read-out: inhibition of minigenome activity (positive control)) is roughly 70%.
For the compound `CC[C@H]1CN2CCc3cc(OC)c(OC)cc3[C@@H]2C[C@@H]1C[C@H]1NCCc2cc(OC)c(OC)cc21` [emetine], in the data set with Vero E6 cells, the cytotoxicity result is on record as “cytotoxic at higher concentrations”. For the same compound, the IC50 in the data set on EBOV minigenome activity [1] is 1.47 µM. Also, the CC50 in “in vitro” is greater than 50 µM. In addition, the “reduction of EBOV replication (EBOV-GFP)” value in the data set with EBOV-GFP amounted to 99%. The “% inhibition in screen” value with EBOV minigenome activity [3] was 98.3%.
In turn, `COc1ccc(C[C@H](N)C(=O)N[C@H]2[C@@H](O)[C@H](n3cnc4c(N(C)C)ncnc43)O[C@@H]2CO)cc1` [puromycin hydrochloride] came in with an IC50 in the data set with EBOV minigenome activity [1] of 0.889 µM. In “in vitro”, this compound returned a CC50 of 3.59 µM. In addition, the “% inhibition in screen” value in the data set on EBOV minigenome activity [3] was 99.7%. Further, the “SI (CC50/IC50)” value in the data set with EBOV minigenome activity [4] is on record as 4.043.
For the compound `C[C@@H]1C[C@@H]([C@H](O)CC2CC(=O)NC(=O)C2)C(=O)[C@@H](C)C1` [cycloheximide], the cytotoxicity entry in the data set on Vero E6 cells is listed as “cytotoxic at higher concentrations”. Moreover, the midpoint of inhibition in the data set with EBOV minigenome activity [1], the IC50, lay at 0.608 µM. This compound also gave a CC50 in “in vitro” greater than 50 µM. Further, the “reduction of EBOV replication (EBOV-GFP)” value with EBOV-GFP is 96%. Also, the “% inhibition in screen” value in the data set on EBOV minigenome activity [3] is given as 97.9%.
The compound `O=c1[nH]cc(F)c(=O)[nH]1` [fluorouracil] showed an IC50 in the data set with EBOV minigenome activity [1] greater than 50 µM. Also, the CC50 in the data set “in vitro” was greater than 50 µM.
`C[C@H]1O[C@@H](O[C@H]2[C@@H](O)C[C@H](O[C@H]3[C@@H](O)C[C@H](O[C@H]4CC[C@@]5(C)[C@H](CC[C@@H]6[C@@H]5CC[C@]5(C)[C@@H](C7=CC(=O)OC7)CC[C@]65O)C4)O[C@@H]3C)O[C@@H]2C)C[C@H](O)[C@@H]1O` [digitoxin]: 0.05 µM corresponded to half-maximal inhibition in the data set on EBOV minigenome activity [1] (IC50). The same compound returned a CC50 in the data set “in vitro” of 0.031 µM. Moreover, the “% inhibition in screen” value in the data set with EBOV minigenome activity [3] is 92.5%. For the same compound, in the data set on EBOV minigenome activity [4], the “SI (CC50/IC50)” value amounted to 0.62.
In the data set on EBOV minigenome activity [1], `C[C@]12CC[C@H]3[C@@H](CC[C@]4(O)C[C@@H](O)CC[C@]34C=O)[C@@]1(O)CC[C@@H]2C1=CC(=O)OC1` [strophanthidin] yielded an IC50 of 1.16 µM. For the same compound, in the data set “in vitro”, the CC50 is 0.491 µM. Besides, the “% inhibition in screen” value with EBOV minigenome activity [3] is 100.0%. For the same compound, the “SI (CC50/IC50)” value in the data set on EBOV minigenome activity [4] is on record as 0.423.
For `CC1=CC(=O)c2c(O)cccc2C1=O` [plumbagin], in that order: 0.919 µM, 0.756 µM, 98.3% and 0.823.
With `Nc1ncnc2c1ncn2[C@@H]1O[C@H](CO)[C@@H](O)[C@@H]1O` [vidarabine], in the data set on EBOV minigenome activity [1], the IC50 was greater than 50 µM. The compound also yielded a CC50 in “in vitro” greater than 50 µM. Further, the “% inhibition in screen” value with EBOV minigenome activity [3] is recorded as 56.1%.
As for `Nc1ncn([C@@H]2O[C@H](CO)[C@@H](O)[C@H]2O)c(=O)n1` [azacitidine], 4.01 µM corresponded to half-maximal inhibition in the data set with EBOV minigenome activity [1] (IC50). In the data set “in vitro”, this compound displayed a CC50 greater than 50 µM. Further, in the data set on EBOV minigenome activity [3], the “% inhibition in screen” value is listed as 76.9%. For the same compound, the “SI (CC50/IC50)” value in the data set on EBOV minigenome activity [4] is listed as greater than 12.466.
For `CC(=O)Oc1c2c(c(CC=C(C)C)c3c1C(=O)C1=C[C@@H]4CC5C(C)(C)OC(C/C=C(\C)C(=O)O)(C4=O)[C@@]15O3)OC(C)(CCC=C(C)C)C=C2` (stereo partly drawn) [acetyl isogambogic acid], in that order: 2.94 µM, 2.89 µM, 99.0% and 0.983.
The compound `CO[C@H]1C=C[C@@]23c4cc5c(cc4CN(C[C@@H]2O)[C@H]3C1)OCO5` [crinamine] registered a CC50 with HEK293T cells greater than 50 µM. Besides, the “% inhibition in screen” value in the data set on EBOV minigenome activity [3] was determined as 91.5%. Also, in the data set with EBOV minigenome activity [4], the IC50 was determined as 3.79 µM and the “SI (CC50/IC50)” value is listed as greater than 13.196.
As to `CC(C)=CCC[C@]1(C)C=Cc2c(O)c3c(c(CC=C(C)C)c2O1)O[C@]12C(=C[C@@H]4CC1C(C)(C)O[C@@]2(C/C=C(/C)C(N)=O)C4=O)C3=O` [gambogic amide], the IC50 with EBOV minigenome activity [1] is 1.01 µM. Further, the CC50 in “in vitro” came to 0.454 µM. In addition, in the data set on EBOV minigenome activity [3], the “% inhibition in screen” value amounted to 100.0%. For the same compound, the “SI (CC50/IC50)” value with EBOV minigenome activity [4] came to 0.45.
In the data set on HEK293T cells, `CN(C)CCOC(c1ccccc1)c1ccccc1.Cn1c(=O)c2[nH]c(Cl)nc2n(C)c1=O` [dramamine] registered a CC50 greater than 50 µM. Further, the “% inhibition in screen” value in the data set with EBOV minigenome activity [3] was 57.8%. In the data set on EBOV minigenome activity [4], this compound registered an IC50 greater than 50 µM.
As for `CC(=O)O[C@@H]1C[C@H]2C(C)(C)C(=O)C=C[C@]2(C)[C@H]2CC[C@@]3(C)[C@H](c4ccoc4)OC(=O)[C@H]4O[C@]43[C@@]21C` [gedunin], the “cell death (cytotoxicity)” value with Vero E6 cells was “little cell death”. For the same compound, the IC50 with EBOV minigenome activity [1] was found to be 0.803 µM. In addition, the CC50 in “in vitro” stood at 5.48 µM. For the same compound, in the data set on EBOV-GFP, the “reduction of virus replication (EBOV-GFP)” value is reported as 98%. Further, the “% inhibition in screen” value with EBOV minigenome activity [3] came out at 72.9%. Besides, in the data set with EBOV minigenome activity [4], the “SI (CC50/IC50)” value was 6.829.
For `CN(Cc1cnc2nc(N)nc(N)c2n1)c1ccc(C(=O)N[C@@H](CCC(=O)O)C(=O)O)cc1` [methotrexate], in the data set on EBOV minigenome activity [1], the IC50 is greater than 50 µM. In the data set “in vitro”, the CC50 is greater than 50 µM. The “% inhibition in screen” value in the data set on EBOV minigenome activity [3] stood at 67.1%.
Regarding `Cc1ccc(C)c(OCCCC(C)(C)C(=O)O)c1` [gemfobrozil], the CC50 in the data set with HEK293T cells was greater than 50 µM. Also, in the data set with EBOV minigenome activity [3], the “% inhibition in screen” value worked out at 62.1%. In the data set with EBOV minigenome activity [4], this compound gave an IC50 greater than 50 µM.
`CC(=O)O[C@H]1C[C@H](O[C@H]2[C@@H](O)C[C@H](O[C@H]3[C@@H](O)C[C@H](O[C@H]4CC[C@@]5(C)[C@H](CC[C@@H]6[C@@H]5C[C@@H](O)[C@]5(C)[C@@H](C7=CC(=O)OC7)CC[C@]65O)C4)O[C@@H]3C)O[C@@H]2C)O[C@H](C)[C@H]1O[C@@H]1O[C@H](CO)[C@@H](O)[C@H](O)[C@H]1O` [lanatoside C]: the IC50 in the data set with EBOV minigenome activity [1] came out at 0.255 µM. The compound further had a CC50 in “in vitro” of 0.177 µM. For the same compound, the “% inhibition in screen” value in the data set with EBOV minigenome activity [3] was 100.0%. Further, the “SI (CC50/IC50)” value in the data set on EBOV minigenome activity [4] came to 0.694.
In the case of `C[C@@]12C(=O)OC(=O)[C@]1(C)[C@H]1CC[C@@H]2O1` [cantharidin], the IC50 in the data set on EBOV minigenome activity [1] was determined as 11.3 µM. For the same compound, in “in vitro”, the CC50 is greater than 50 µM. Further, in the data set on EBOV minigenome activity [3], the “% inhibition in screen” value is given as 87.3%. In the data set on EBOV minigenome activity [4], the midpoint of inhibition, the IC50, lay at 11.3 µM and the “SI (CC50/IC50)” value is listed as greater than 4.415.
